Tests used:
[1] = tested on: phosphorylation of PP1α and HEC1; assay: Western blot analysis for phospho-PP1α and phospho-Hec1 in cell cycle synchronized MDA-MB-231 cells; type: cell-based; conditions: double thymidine block and nocodazole, 10, 50, 100, and 500 nM
Method: Reagents. MDA-MB-231 (Breast adenocarcinoma, triple negative breast cancer) and SW480 (colorectal adenocarcinoma, stem-like subtype) cells were purchased from ATCC and cultured as per manufacturer's instruction. Thymidine (Sigma, T9250) stock solution (100 mM) was prepared in PBS. 2′-Deoxycytidine (Sigma, D897) stock solution (240 mM) was prepared in distilled H2O. Nocodazole (Selleck Chemicals, S2775) stock solution (5 mg/mL) was made in dimethyl sulfoxide (DMSO). FxCycle Far Red stain (F10348) for cell cycle analysis was purchased from Thermo Fisher Scientific.
Antibodies. […]
Cell Cycle Synchronization. […] Effectiveness of NEK2 inhibitors (Cmpd-16 and Cmpd-18) were assessed by adding small molecule inhibitors with nocodozole at 10, 50, 100, and 500 nM concentration at the time of nocodazole addition. […]
Immunoblot Analysis. […] Whole cell lysates were sonicated and centrifuged at 16000×g for 10 minutes at 4° C., and protein concentration of the supernatant were determined using BCA Protein assay kit (ThermoScientific, 23225). Equal amounts of protein lysates (30 μg/lane and 10 μg/lane only for Histone H3 immunoblots) were fractionated on a NuPAGE Novex 4%-12% Bis-Tris Protein Gel (Thermo Fisher Scientific, NP0335BOX) and transferred onto a low fluorescence PVDF membrane (Millipore, IPFL07810). […] Li-Cor Image Studio software was used for western blot analysis and quantification

[2] = molecular target: T1, NEK2 kinase (Accession No. NP-002488) (Homo sapiens, UniProt P51955); assay: HotSpot Kinase Assay, NEK2; type: biochemical; conditions: HotSpot Kinase Assay; read-out: NEK2 IC50
T1 construct: purchased ThermoFisher Scientific (Invitrogen)
T1 sequence (P51955 1-445): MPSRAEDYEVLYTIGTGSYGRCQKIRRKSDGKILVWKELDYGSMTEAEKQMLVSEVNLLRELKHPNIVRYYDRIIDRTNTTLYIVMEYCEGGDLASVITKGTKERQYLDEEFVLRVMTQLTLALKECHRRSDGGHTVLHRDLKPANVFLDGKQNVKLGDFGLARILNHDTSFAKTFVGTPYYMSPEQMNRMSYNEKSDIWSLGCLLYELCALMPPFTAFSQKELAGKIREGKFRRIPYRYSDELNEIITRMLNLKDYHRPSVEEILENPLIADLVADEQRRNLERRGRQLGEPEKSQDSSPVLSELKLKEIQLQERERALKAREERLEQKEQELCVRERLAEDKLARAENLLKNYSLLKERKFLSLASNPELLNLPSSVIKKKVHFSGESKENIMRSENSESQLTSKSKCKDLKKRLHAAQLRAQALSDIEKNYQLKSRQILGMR
Method: In this example, the compounds described herein were tested for their inhibitory activity against NEK2 and/or Aurora A using the HotSpot™ Kinase Assay (Reaction Biology Corp.). The assay was performed according to the manufacturer's protocol, as detailed below. The NEK2 kinase (Accession No. NP-002488) and Aurora A kinase (Accession No. NP-940839) for use in these assays was sourced from ThermoFisher Scientific (Invitrogen).
The base Reaction Buffer used in this experiment contained the following: 20 mM Hepes (pH 7.5), 10 mM MgCl2, 1 mM EGTA, 0.02% Brij™-35, 0.02 mg/ml BSA, 0.1 mM Na3VO4, 2 mM DTT, and 1% DMSO. The required cofactors were added individually to each kinase reaction.
Testing compounds were dissolved in 100% DMSO to a specific concentration. The serial dilution was conducted by Integra Viaflo Assist in DMSO.
The substrate was prepared in freshly prepared Reaction Buffer. The required cofactors were delivered to the substrate solution described above. NEK2 kinase or Aurora A kinase was delivered to the substrate solution and gently mixed. Next, the compounds in 100% DMSO were transferred to the kinase reaction mixture by Acoustic technology (Echo550; nanoliter range) and incubated for 20 min at room temperature. ^33P-ATP (Specific activity 10 μCi/μl) was delivered into the reaction mixture to initiate the reaction. The reaction was incubated for 2 hours at room temperature. Radioactivity was then detected by the filter-binding method. Kinase activity data were expressed as the percent remaining kinase activity in test samples compared to vehicle (dimethyl sulfoxide) reactions. IC50 values and curve fits were obtained using Prism (GraphPad Software).

- IC50 [2]: ≤ 5 nM
Compound: N#Cc1c(Nc2nc(Nc3ccc(N4CCNCC4)cc3)ncc2Cl)cccc1OCc1ccccc1F [Compound 16, 2-((5-chloro-2-((4-(piperazin-1-yl)phenyl)amino)pyrimidin-4-yl)amino)-6-((2-fluorobenzyl)oxy)benzonitrile]
- phosphorylation of PP1α and HEC1 (HistoneH3 phosphorylation as marker of mitosis) [1]: more specifically inhibited phosphorylation of PP1α and HEC1 without interfering in cell cycle progression than Cmpd-18

Reference: patent US20230090742A1, “AMINOPYRIMIDINYLAMINOBENZONITRILE DERIVATIVES AS NEK2 INHIBITORS” (Sumitomo Pharma Oncology, Inc., priority 2020, published 2023)
